According to patent publication US10010516B2, “Method for regulating retinal endothelial cell viability” (The University of Tennessee Research Foundation, priority 2012, dated 2018):
Entries after “also recorded” stand apart in the source; their conditions may differ.

Tests used:
p53 = assay: Immunoblot of phosphorylated and total p53 in RECs; assay type: cell-based, human
paxillin = assay: Immunoblot of paxillin (Y118) phosphorylation in irradiated RECs; assay type: cell-based, human; details: irradiated RECs 30 Gy, 24 hours, P<0.05
Y79 retinoblastoma cells = assay: Cell death ELISA in Y79 retinoblastoma cells; assay type: cell-based, human; details: melphalan 0.8, 1 or 4 μg/mL tested
NF-κB = assay: Western blot of phospho-NF-κB / total NF-κB in RECs; assay type: cell-based, human; details: melphalan 4 μg/mL
Method: Western blotting. After appropriate treatments and rinsing with cold phosphate-buffered saline, REC were lysed in the lysis buffer containing the protease and phosphatase inhibitors and scraped into the tubes. Equal amounts of protein from the cell or tissue extracts were separated on the pre-cast tris-glycine gel (Invitrogen, Carlsbad, Calif.), blotted onto a nitrocellulose membrane. After blocking in TBST (10 mM Tris-HCl buffer, pH 8.0, 150 mM NaCl, 0.1% Tween 20) and 5% (w/v) BSA, the membrane was treated with NF-κB, Phospho-NF-κB p38^MAPK, Phospho-p38^MAPK antibodies (1:500) followed by incubation with horseradish peroxidase labeled secondary antibodies. The antigen-antibody complexes were detected using chemilluminescence reagent kit (Thermo Scientific).
Transfections. REC were transfected with ICAM-1 siRNA, TNF-α siRNA, or NF-κB siRNA at a final concentration of 20 nM using Lipofectamine™ RNAiMAX Transfection Reagent according to the manufacturer's instructions. After transfection, cells were starved in MVGS-free Medium 131 for 24 hours and used as required.

RECs [1] = system: RECs
RECs [2] = details: melphalan 4 μg/mL; cited from earlier work
ICAM-1 = ICAM-1 ELISA / Western blot in RECs treated with melphalan; assay type: cell-based, human; details: TNF-α siRNA or etanercept + melphalan

Question: What does the source list for `Oc1ccc(-c2nc(-c3ccncc3)c(-c3ccc(F)cc3)[nH]2)cc1` [SB202190]?
Answer: effect on RITA-induced p53 accumulation (p53; concomitant treatment with RITA, P>0.05): did not significantly alter; phosphorylation of paxillin at Y118 (paxillin): significantly reduced

Question: Which results are given for `N[C@@H](Cc1ccc(N(CCCl)CCCl)cc1)C(=O)O` [melphalan]?
Answer: apoptosis of Y79 retinoblastoma cells (Y79 retinoblastoma cells): 4 μg/mL produced maximal apoptosis and best induces apoptosis at 4 μg/mL; induction of NF-κB phosphorylation (NF-κB): time-dependent; time of maximum increase in NF-κB Ser536 phosphorylation (NF-κB): 30 min; DNA fragmentation in RECs (RECs [1]; melphalan 4 μg/mL, 24 hours): did increase DNA fragmentation; increase in REC death (RECs [2]): greater than 6 fold

Question: With etanercept as the compound, how does the “melphalan-induced ICAM-1 levels with TNF-α inhibition” value (ICAM-1) read?
Answer: neither TNF-α siRNA nor etanercept could reduce ICAM-1 levels; also recorded: Neither TNFα siRNA nor etanercept reduced ICAM-1 levels

Question: What about the “REC apoptosis after melphalan treatment (etanercept)” value (RECs [1]; etanercept + melphalan) of the same compound?
Answer: did not reach statistical significance

Question: For `OCc1ccc(-c2ccc(-c3ccc(CO)s3)o2)s1` [RITA], which p53 accumulation (p53; RITA 10 μM for four hours vs untreated RECs, P<0.05) is on record?
Answer: significantly enhanced
